Tested on: porcine pancreatic lipase
Assay: Porcine pancreatic lipase-catalyzed hydrolysis (lipase titrimetric assay, automatic pH stat method)
Type: in vitro ADME
Conditions: pH 8.5
Description: To measure the relative rate of enzyme-catalyzed hydrolysis for the esterified propoxylated glycerin, the composition was challenged by porcine pancreatic lipase. Test emulsions were prepared using the composition according to the procedures described by Naher, "Lipase Titrimetric Assay", in Methods in Enzymatic Analysis, Vol. 2, 2nd Eng. ed., p. 814 (1974), except that the composition was not neutralized prior to generation of the emulsion. A 20 mL sample of the composition was utilized. The emulsions were generated in a Waring blender equipped with a stainless steel jacketed container (300 mL capacity). The jacketed blender container was filled with an ice-in-water suspension to cool the emulsion during preparation. Hydrolysis of the composition at pH 8.50 and two enzyme levels (200 and 4000 units/assay) was monitored via the automatic pH stat method described by Naber using a Radiometic Copenhagen RTS822 recording titration system (equipped with a PHM84 pH meter and a REA 270 derivatization unit) and a 0.1N sodium hydroxide solution. The enzymatic reaction was maintained at 37° C. under a nitrogen atmosphere.
The results obtained for the esterified alkoxylated polyol obtained as described hereinabove and for olive oil and soybean oil controls are shown in Table I. The table also provides comparative data for a conventional esterified alkoxylated polyol made by reacting 8 equivalents of propylene oxide with one equivalent of glycerin under basic conditions and esterifying with soybean fatty acids; this conventional fat substitute has a low (<5%) proportion of primary ester linkages. […] This finding was surprising in view of U.S. Pat. Nos. 5,059,443 and 5,077,073, which indicate that the rate of lipase-catalyzed hydrolysis is substantially independent of the structure of the ester linkages in an esterified alkoxylated polyol fat substitute.

For Soybean Oil, the “Hydrolysis Rate (#μeq/min for an equivalent amount of enzyme)” value was 3.62 μeq/min, the “Hydrolyzability (relative to olive oil)” value was 0.738 and the “Normalized Hydrolyzability (hydrolyzability compared on an equal molar basis, taking into account the concentration of ester linkages)” value was 0.723.

Source: patent publication US5399729A, “Esterified alkoxylated polyol fat substitutes having high primary ester content” (Arco Chemical Technology, L.P., priority 1993, dated 1995)
